# Results published in patent US20220273658A1, “SMALL MOLECULE LIVER X RECEPTOR MODULATORS AND USES THEREOF” (University of Houston System, priority 2019, published 2022).
# Assays:
# PDAC cells = experiment: pro-apoptotic caspase cleavage analysis; type: cell-based, human
# Description: (§1) To determine if 1E5 and 3A4 can induce apoptosis, PDAC cells were treated with the LXR ligands and subjected to pro-apoptotic caspase cleavage analysis. […] Metabolomic profiling following treatments with the two ligands indicated the activation of two distinct cell death mechanisms. Ferroptosis is a non-apoptotic form of cell death which is characterized by accumulation of lipid peroxides by loss of glutathione peroxidase 4 (GPX4) activity. It can also be induced by accumulation of intracellular iron and depletion of reduced glutathione (GSH). GPX4 is an anti-oxidant enzyme involved in conversion of PUFA peroxides to PUFA alcohols. GSH is a critical cofactor of GPX4 and acts as a reducing agent to reduce the lipid peroxides. Therefore, direct inhibition of GPX4 activity or reduction in GSH levels trigger ferroptosis. The second mechanism of inducing ferroptosis is accumulation of polyunsaturated fatty acids (PUFAs) in cells. Studies have shown that PUFAs are the most susceptible lipids to peroxidation.
# Accumulation of C18 ceramides in the mitochondria leads to the recruitment of auto phagosomes in mitochondria and induces LC3-ceramide dependent lethal mitophagy. […] Darkened circles indicate increases and the size of the circle corresponds to the significance of changes.
# LXR in MDA-MB-231 cells = experiment: western blot of LXR protein levels; type: cell-based
# Text: (§2) The inhibitory effects of LXR ligands in breast cancer cells have been shown previously. […] The observed decreases in LXR protein levels were not affected by proteasome inhibitor MG132.
# [1] = test system: LXR proteins in MCF-7 cells; experiment: western blot of LXR protein levels; type: cell-based
# Text: as §2
# HPNE cells = experiment: growth of non-transformed pancreatic epithelial cells (WST screen; FIG. 32D); type: cell-based, human; settings: WST screen
# Description: (§3) The initial identification and subsequent characterization of the two novel LXR ligands and their derivative compounds was carried out in screens in three human pancreatic cancer cell and one non-transformed human pancreatic epithelial cell line in three or more replicate experiments for each cell line using the WST tetrazolium salt reduction assays.
# (§4) The synthesis and characterization of KD-01-39, a derivative of 3A4, have not been described previously.
# MCF-7 = experiment: expression of LXR target genes in breast cancer cells; type: cell-based; settings: MCF-7, ER-positive
# Text: as §2
# MDA-MB-231 = experiment: as above; type: cell-based; settings: MDA-MB-231, triple-negative
# Text: as §2
# pancreatic cancer cells = experiment: metabolomic analysis using mass spectroscopy in pancreatic cancer cells; type: cell-based, human
# Description: To further characterize the mechanisms of action of novel LXR modulators 1E5 and 3A4, metabolomic and transcriptomic analysis of pancreatic cancer cells were conducted in response to treatment. […] PDAC tumors have altered metabolism to support its growth and survival. Previous studies have reported that Kras upregulates the non-canonical use of glutamine to maintain NADPH/NADP+ ratio which in turn regulates redox homeostasis. This unconventional use of glutamine by PDAC cells fuel cancer cell proliferation and survival. Glutamine metabolism in PDAC has two unique functions: 1. Glutamine-derived Glutamate is used for glutathione (GSH) biosynthesis. 2. Glutamine facilitates generation of reducing equivalents in the form of NADPH. In PDAC mitochondria, glutamine is converted to glutamate by glutaminase enzyme (GLS1). This glutamine derived glutamate is conventionally converted to alpha-ketoglutarate by glutamate dehydrogenase (GLUD1) to fuel citric acid cycle. However, in PDAC cells glutamate is converted to aspartate in cytosol which is converted to malic acid and NADPH is produced during this process. This process is essential to maintain redox homeostasis in the tumor. However, this non-canonical use of glutamine is dispensable in non-malignant cells. Therefore, targeting GLS1 to decrease the bioavailability of glutamate to act as source of nitrogen and carbon for the synthesis of amino acids and nucleic acids is a viable strategy to target PDAC tumors. […] The effect of 1E5 is similar to BPTES, a potent GLS1 inhibitor.
# TCA cycle intermediates act as anaplerotic substrate for gluconeogenesis and lipogenesis. […] GOT2 converts glutamine-derived glutamate to alpha-KG. During this process oxaloacetate is converted to aspartate which is required to maintain redox homeostasis. Studies have shown that inhibition of GOT2 in PDAC promotes senescence.
# as §1
# Expression profiles of ferroptosis genes in RNAseq data following 1E5 treatment were also consistent with its pro-ferroptotic actions. […] Polyamines are amino-acid derived polycationic alkylamines that are required for the growth of cells. SAT1 catalyzes the acetylation of spermidine and spermine to form N-acetylspermidine and N-acetylspermine respectively. […] SAT1 induces ferroptosis by upregulating the peroxidation of PUFA arachidonic acid. Ceramides are sphingolipids consisting of sphingosine and fatty acid acyl chain. Cellular stress leads to upregulation of ceramide synthesis which mediate caspase-dependent apoptosis. Accumulation of ceramides/hexosylceramides in the mitochondria leads to the formation of channel like structures in the mitochondrial outer membrane which increases the permeability of pro-apoptotic proteins such as cytochrome c. ER stress is also known to activate de-novo synthesis of ceramides and induce apoptosis by increasing the flow of Ca ions and upregulating the unfolded protein stress response. […]
# [2] = test system: genes involved in ferroptosis; experiment: quantitative PCR of genes involved in ferroptosis; type: cell-based, human
# Text: Expression profiles of ferroptosis genes in RNAseq data following 1E5 treatment were also consistent with its pro-ferroptotic actions. […] Polyamines are amino-acid derived polycationic alkylamines that are required for the growth of cells. SAT1 catalyzes the acetylation of spermidine and spermine to form N-acetylspermidine and N-acetylspermine respectively. […] SAT1 induces ferroptosis by upregulating the peroxidation of PUFA arachidonic acid. Ceramides are sphingolipids consisting of sphingosine and fatty acid acyl chain. Cellular stress leads to upregulation of ceramide synthesis which mediate caspase-dependent apoptosis. Accumulation of ceramides/hexosylceramides in the mitochondria leads to the formation of channel like structures in the mitochondrial outer membrane which increases the permeability of pro-apoptotic proteins such as cytochrome c. ER stress is also known to activate de-novo synthesis of ceramides and induce apoptosis by increasing the flow of Ca ions and upregulating the unfolded protein stress response.
# PDAC cell lines = experiment: tetrazolium salt reduction (WST) assay in PDAC cell lines; type: cell-based, human; settings: WST screen, three human pancreatic cancer cell lines
# Description: To determine the effects of LXR ligands on PDAC cell proliferation, cells were treated with synthetic LXR agonist GW3965 and live cells were quantified using trypan blue exclusion assays. […] FIGS. 8A, 8B, and 8C show dose-dependent decreases in cell proliferation in BxPC-3, Mia-PaCa-2, and PANC-1, respectively upon treatment with increasing GW3965 concentrations. […] Clonogenic assays were also employed to evaluate the effects of long-term LXR ligand treatment on cell proliferation and colony formation. […] These findings indicate that LXRs are involved in PDAC cell proliferation and targeting LXRs with ligands perturb their normal functions in cell proliferation.
# as §3
# LXR-LBD = experiment: differential scanning fluorimetry; type: binding
# Text: as §4
# MDA-MB-231 cells = experiment: breast cancer cell proliferation; type: cell-based
# Text: as §2
structure (smiles),measurement,setting,value
"O=c1cc(-c2ccccc2)nc(Nc2cccc(C(F)(F)F)c2)[nH]1 [Compound 1E5, 6-phenyl-2-{[3-(trifluoromethyl)phenyl]amino}-3,4-dihydropyrimidin-4-one]",pro-apoptotic caspase cleavage,PDAC cells,did not
same,LXR protein levels (degradation),LXR in MDA-MB-231 cells,degraded LXR
same,LXR protein levels (degradation),[1],act as degraders of LXR proteins
same,activity against non-transformed HPNE cells,HPNE cells,little activity
same,expression of LXR target genes,MCF-7,generally down-regulated
same,expression of LXR target genes,MDA-MB-231,generally down-regulated
same,glutamate levels (mass spectroscopy),pancreatic cancer cells,decreases in glutamate levels
same,glutamine biosynthesis,pancreatic cancer cells,inhibited glutamine biosynthesis
same,level of glutathione (GSH),pancreatic cancer cells,decreased level of GSH
same,"levels of TCA cycle intermediates (alpha-KG, citrate and fumarate)",pancreatic cancer cells,downregulated
same,levels of asparagine and aspartate,pancreatic cancer cells,decreased the levels
same,levels of polyamine metabolites,pancreatic cancer cells; PANC-1,"depletion of spermidine and spermine and accumulation of putrescine, N-acetylspermidine and N-acetylspermine"
same,levels of polyunsaturated fatty acids (PUFAs),pancreatic cancer cells; PANC-1,increased levels of PUFAs
same,"expression of GPX4 and other negative regulators of ferroptosis (STMN1, RRM2)",[2],decreased the expression
same,expression of SAT1,[2],increases the expression
same,human pancreatic cancer cells growth,PDAC cell lines,effective in inhibiting human pancreatic cancer cells growth
same,LXR-LBD structure and dye dissociation with increasing temperature,LXR-LBD,disrupted the LBD structure
same,proliferation of MDA-MB-231 cells,MDA-MB-231 cells,inhibited
